PMC10530652 (BME Frontiers, 2021)

Experiments:
[1] = system: MMP activity in ex vivo ventilated ovine lung; assay: Ex vivo ovine lung model instilled with OPA supernatant, FCFM imaging; conditions: 5 μM FIB One in 1 mL, OPA supernatant-instilled segments, n=3
Protocol: Ovine pulmonary adenocarcinoma (OPA) tissue was homogenised using a drill homogeniser, followed by lysis in cell lysis buffer. The supernatant was collected following centrifugation at 12,000 rpm for 20 min. The samples were adjusted to 1 mg mL^-1 total protein (determined by a Pierce BCA Total Protein Assay Kit (Thermo Fisher Scientific)). Zymography (as described above) was performed to confirm MMP activity across multiple OPA samples. Recombinant MMP-9 (2 nM) and recombinant pro-MMP-9 (0.5 nM) were included in the assay as positive controls. […] Following >30 min, the segments were bronchoscopically identified and microdosed with 5 μM FIB One in 1 mL. FCFM imaging was undertaken pre- and postinstillation (Cellvizio®, Mauna Kea Technologies). This was performed by passing a FCFM fibre into the disparate bronchopulmonary segments (up to 5 passes per bronchopulmonary segment to capture a regional representation of fluorescence), recording images at 12 frames per second and imaging for up to 5 minutes. Videos were analysed as described above. Each experimental set was normalised to the control segment (segment with 1 mL 0.9% NaCl instilled) which represents intrinsic autofluorescence.

[2] = system: stimulated human neutrophils; assay: FIB One cleavage in supernatant from stimulated neutrophils; format: cell-based; conditions: FIB One 1 μM, 10 min incubation with neutrophil supernatant
Protocol: Neutrophils were isolated from the blood of healthy human volunteers as previously described. The number of retrieved neutrophils was determined with NucleoCounter NC-1000 (Chemo Metec). Neutrophils were resuspended at a concentration of 20×10^6 mL^-1 in 0.9% NaCl with 0.9 mM CaCl2. Cells were incubated for 30 min at 37°C. Cells to be stimulated were subsequently activated with 5 μM calcium ionophore A23187 (Tocris Bioscience) for 30 min at 37°C. Neutrophils were harvested by centrifugation at 400 x g for 5 min. Supernatants were removed and stored. Plate reader assays were performed as described above, with the MMP buffer replaced with neutrophil supernatant. All experiments were carried out in duplicate using three independent donors (one donor per independent repeat). Data were normalised by background subtraction of intrinsic fluorescence.

[3] = system: MMP-12; conditions: placebo-controlled, 55 COPD patients; cited from earlier work
Source text: (§1) MMP inhibition has been identified as a target for drug interventions in inflammatory diseases. MMP inhibitors used in trials as cancer therapies were disappointing due to lack of efficacy and significant adverse effects. Studies have also been limited by a lack of quantifiable biomarkers to reflect on their in vivo and functional activity. […] It had previously been used in a phase 2A safety and tolerab ...

[4] = target: T1, MMP-9 (Homo sapiens, UniProt P14780); conditions: placebo-controlled, 55 COPD patients; cited from earlier work
T1 construct: recombinant MMPs (Enzo Life Sciences) (active domains of MMP-1, MMP-2, MMP-3, MMP-7, MMP-8, MMP-9, MMP-10, MMP-11, MMP-12, and MMP-13); purchased Enzo Life Sciences
Source text: as §1

[5] = system: emphysema patients; conditions: 74 emphysema patients, placebo or AZD1236 75 mg twice daily for 6 weeks; cited from earlier work
Source text: as §1

[6] = system: MMP activity in the alveolar space; assay: In vivo assessment of FIB One and AZD1236 with TLBC in patients; parameters: species or system human; conditions: 500 μL AZD1236 14 μg/mL predelivered, then 500 μL FIB One 20 μg/mL, nine patients
Protocol: In subsequent testing the Miniaturized Alveoflex™-TLBC combination replaced the Alveoflex™ fibre. The entire apparatus was passed transbronchially to allow direct alveolar imaging before localised delivery of agents. Once transbronchial pass was accomplished, baseline lung imaging was recorded for at least 30 sec. A 500 μL microdose of either AZD1236 (14 μg/mL) or sterile PBS (control) was administered under direct observation, and further imaging was obtained for >60 sec. 500 μL of FIB One (20 μg/mL) (delivered only after at least 60s to allow MMP inhibition) was then dosed to the same area with a further 90-120 sec of imaging captured. If considerable movement due to breathing or coughing was encountered, imaging was halted and a new segment identified. Up to 6 segments of interest were investigated per patient determined by patient tolerance.
All video sequences were assessed by two clinicians with clinical experience of pulmonary endomicroscopy. Frames with excessive movement or lack of recognizable alveolar structure were removed from analysis. Videos were assessed to ensure stability throughout the imaging procedure. […] All video files were analysed using the Cellvizio® Viewer image processing software from Mauna Kea Technologies, Paris. […] The median RFU was calculated for each category and used as a comparative value between groups.

T1 sequence (P14780 107-444 limits assumed): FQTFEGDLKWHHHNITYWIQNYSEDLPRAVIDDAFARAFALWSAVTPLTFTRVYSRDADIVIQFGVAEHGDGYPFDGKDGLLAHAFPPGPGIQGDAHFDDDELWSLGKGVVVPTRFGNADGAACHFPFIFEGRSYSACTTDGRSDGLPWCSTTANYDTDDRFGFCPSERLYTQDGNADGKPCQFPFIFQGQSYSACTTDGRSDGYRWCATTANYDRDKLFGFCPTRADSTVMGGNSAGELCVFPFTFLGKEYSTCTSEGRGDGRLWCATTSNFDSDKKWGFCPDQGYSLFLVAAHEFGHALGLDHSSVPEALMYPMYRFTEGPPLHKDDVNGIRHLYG

Row | Substance | FIB One fluorescence in segments with high MMP activity [1] | cleavage of FIB One [2] | MMP-12 inhibition in induced sputum [3] | MMP-9 inhibition in induced sputum [4] | effect on the secondary lung physiology endpoints [5] | drug-target engagement within the alveolar space [6]
1 | (Pro-Phe-Gly-Nle-Lys-βAla)3 [FIB One] | diffuse pattern of increased fluorescence | cleaved |  |  |  | 
2 | AZD1236 |  |  | failed to demonstrate | failed to demonstrate | no effect | in situ in vivo drug-target engagement
